According to US6444670B2 (Wyeth, priority 1998, dated 2002):

What was measured:
[1] = tested on: rat hepatic microsomal PTPases; conditions: 50 μM compound
[2] = tested on: diabetic (ob/ob) mice; experiment: Blood glucose lowering in diabetic (ob/ob) mice; format: in vivo, mouse; conditions: for % Change Glucose from Vehicle: plasma glucose
Description: The procedures used and results obtained are briefly described below.
The non-insulin dependent diabetic (NIDDM) syndrome can be typically characterizes by obesity, hyperglycemia, abnormal insulin secretion, hyperinsulinemia and insulin resistance.
In each test procedure, mice [Male or female ob/ob (C57 B1/6J) and their lean litermates (ob/+ or +/+, Jackson Laboratories) ages 2 to 5 months (10 to 65 g)] of a similar age were randomized according to body weight into 4 groups of 10 mice. The mice were housed 5 per cage and are maintained on normal rodent chow with water ad libitum. Mice received test compound daily by gavage (suspended in 0.5 ml of 0.5% methyl cellulose); dissolved in the drinking water; or admixed in the diet. The dose of compounds given ranges from 2.5 to 200 mg/kg body weight/day. The dose is calculated based on the fed weekly body weight and is expressed as active moiety. […] Control mice received vehicle only.
On the morning of Day 4, 7 or 14 two drops of blood (approximetly 50 ul) were collected into sodium fluoride containing tubes either from the tail vein or after decapitation. For those studies in which the compound was administered daily by gavage the blood samples were collected 0 and 4 hours after compound administration. The plasma was isolated by centrifugation and the concentration of glucose is measured enzymatically on an Abbott V. P. Analyzer.
For each mouse, the percentage change in plasma glucose on Day 4, 7 or 14 is calculated relative to the mean plasma glucose of the vehicle treated mice. Analysis of variance followed by Dunett's Comparison Test (one-tailed) are used to estimate the significant difference between the plasma glucose values from the control group and the individual compound treated groups (CMS SAS Release 5.18).

[3] = target: T1, Human recombinant PTP1B (hPTP1B) (Homo sapiens, UniProt P18031); format: biochemical
T1 construct: made in house
T1 sequence (P18031 1-435): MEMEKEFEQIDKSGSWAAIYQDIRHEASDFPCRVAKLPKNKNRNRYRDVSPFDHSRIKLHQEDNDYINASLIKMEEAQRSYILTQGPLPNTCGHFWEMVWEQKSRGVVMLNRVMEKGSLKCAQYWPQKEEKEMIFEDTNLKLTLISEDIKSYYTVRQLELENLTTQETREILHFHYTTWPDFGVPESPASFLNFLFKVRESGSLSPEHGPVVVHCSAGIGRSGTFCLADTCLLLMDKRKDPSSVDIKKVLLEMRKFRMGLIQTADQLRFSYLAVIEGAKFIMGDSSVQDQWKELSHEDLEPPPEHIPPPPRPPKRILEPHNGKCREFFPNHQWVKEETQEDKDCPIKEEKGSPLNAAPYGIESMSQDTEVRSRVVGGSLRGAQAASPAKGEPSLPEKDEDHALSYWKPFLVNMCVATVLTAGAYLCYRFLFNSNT

[4] = dose 25 mg/Kg, (a) = no significant activity (p < 0.05) at this dose
[5] = dose 10 mg/Kg, (a) = no significant activity (p < 0.05) at this dose

| SMILES | % Change from Control [1] [%] | % Change Insulin from Vehicle [2, 4] | % Change Glucose from Vehicle [2, 4] | IC50 [3] [µM] | % Change Insulin from Vehicle ([2]; dose 10 mg/Kg) | % Change Insulin from Vehicle ([2]; dose 100 mg/Kg) | % Change Glucose from Vehicle [2, 5] | % Change Glucose from Vehicle ([2]; dose 100 mg/Kg) | % Change Glucose from Vehicle ([2]; dose 10 mg/Kg, measured at 0 hour) |
| --- | --- | --- | --- | --- | --- | --- | --- | --- | --- |
| Cc1c(CN2CCOCC2)sc2c(Br)c3ccccc3c(-c3cc(Br)c(OC(Cc4ccccc4)C(=O)O)c(Br)c3)c12 (centres unmarked) [Example 35, 2-[2,6-Dibromo-4-(9-bromo-3-methyl-2-morpholin-4-ylmethyl-naphtho[2,3-b]thiophen-4-yl)-phenoxy]-3-phenyl-propionic acid] | −58.85 | −2.98 (a) % | −25.58 ^ % | 0.273 | – | – | – | – | – |
| Cc1sc2c(Br)c3ccccc3c(-c3cc(Br)c(O[C@H](Cc4ccccc4)C(=O)O)c(Br)c3)c2c1C [Example 29, (R)-2-[2,6-Dibromo-4-(9-bromo-2,3-dimethyl-naphtho[2,3-b]thiophen-4-yl)-phenoxy]3-phenyl-propionic acid] | −83.54 | −80.50 ^ % | −38.18 ^ % | 0.115 | −48.11 ^ % | −89.59 ^ % | −18.6 (a) % | −48.63 ^ % | – |
| Cc1sc2c(Br)c3ccccc3c(-c3cc(Br)c(O[C@H](CCc4ccccc4)C(=O)O)c(Br)c3)c2c1C [Example 32, (R)-2-[2,6-Dibromo-4-(9-bromo-2,3-dimethyl-naphtho[2,3-b]thiophen-4-yl)-phenoxy]-4-phenyl-butyric acid] | −89.41 | −48.35 ^ % | −15.68 (a) % | 0.06 | – | – | – | – | – |
| Cc1sc2c(Sc3ccccc3)c3ccccc3c(-c3cc(Br)c(O[C@H](Cc4ccccc4)C(=O)O)c(Br)c3)c2c1C [Example 33, (R)-2-[2,6-dibromo-4-(2,3-dimethyl-9-phenylsulfanyl-naphtho[2,3-b]thiophen-4-yl)-phenoxy]-3-phenyl-propionic acid] | −61.92 | −39.3 ^ % | −21.10 (a) % | 0.029 | – | – | – | – | – |
| CCc1cc(-c2c3ccccc3c(Br)c3sc(C)c(C)c23)cc(Br)c1O[C@H](Cc1ccccc1)C(=O)O [Example 43, (R)-2-[2-Bromo-4-(9-bromo-2,3-dimethyl-naphtho[2,3-b]thiophen-4-yl)-6-ethyl-phenoxy]-3-phenyl-propionic acid] | −78.84 | – | −45.2 ^ % | 0.171 | – | – | – | – | – |
| Cc1sc2c(Br)c3ccccc3c(-c3ccc(O[C@H](Cc4ccccc4)C(=O)O)c(C(C)C)c3)c2c1C [Example 44, (R)-2-[4-(9-Bromo-2,3-dimethyl-naphtho[2,3-b]thiophen-4-yl)-6-isopropyl-phenoxy]-3-phenyl-propionic acid] | −68.50 | – | −17.2 ^ % | 0.237 | – | – | – | – | – |
| CCc1cc(-c2c3ccccc3c(Br)c3sc(C)c(C)c23)cc(CC)c1O[C@H](Cc1ccccc1)C(=O)O [Example 61, (R)-2-[4-(9-Bromo-2-,3-dimethyl-naphtho[2,3-b]thiophen-4-yl)-2,6-diethyl-phenoxy]-3-phenyl-propionic acid] | – | – | – | 0.164 | – | – | – | – | −32.8 (c) % |
| CC1(COc2ccc(CC3SC(=O)NC3=O)cc2)CCCCC1 (centres unmarked) [Ciglitazone, 5-(4-(1-methylcyclohexylmethoxy)benzyl)-2,4-dione, reference compound] | – | – | – | – | – | −39 ^ % | – | −43 ^ % | – |
| Cc1cc(-c2c3ccccc3c(Br)c3sc(C)c(C)c23)cc(C)c1O[C@H](Cc1ccccc1)C(=O)O [Example 49, (R)-2-[4-(9-Bromo-2,3-dimethyl-naphtho[2,3-b]thiophen-4-yl)-2,6-dimethyl-phenoxy]-3-phenyl-propionic acid] | −89.36 | – | – | – | – | – | −35.1 ^ % | – | – |
